Results published in patent publication US10301288B2, “Kinase inhibitors” (Topivert Pharma Limited, priority 2013, dated 2019).

Legend:
c-Src = c-Src (Homo sapiens (Human), UniProt P12931); assay: c-Src enzyme inhibition (FRET); type: biochemical
Description: (§1) The enzyme inhibitory activities of compounds disclosed herein are determined by FRET using synthetic peptides labelled with both donor and acceptor fluorophores (Z-LYTE, Invitrogen Ltd., Paisley, UK).
(§2) The inhibitory activities of compounds of the invention against c-Src and Syk enzymes (Invitrogen), are evaluated in a similar fashion to that described hereinabove. The relevant enzyme (3000 ng/mL or 2000 ng/mL respectively, 2.5 μL) is incubated with the test compound (either 4 μg/mL, 0.4 μg/mL, 0.04 μg/mL, or 0.004 μg/mL, 2.5 μL each) for 2 hr at RT. The FRET peptides (8 μM. 2.5 μL), and appropriate ATP solutions (2.5 μL, 800 μM for c-Src, and 60 μM ATP for Syk) are then added to the enzymes/compound mixtures and incubated for 1 hr. Development reagent (protease, 5 μL) is added for 1 hr prior to detection in a fluorescence microplate reader (Varioskan® Flash, ThermoFisher Scientific).
(§3) In all cases, the site-specific protease cleaves non-phosphorylated peptide only and eliminates the FRET signal. Phosphorylation levels of each reaction are calculated using the ratio of coumarin emission (donor) over fluorescein emission (acceptor), for which high ratios indicate high phosphorylation and low ratios indicate low phosphorylation levels.

Syk = Syk (Homo sapiens (Human), UniProt P43405); assay: Syk enzyme inhibition (FRET); type: biochemical
Description: as §1, §2, §3

PBMCs [1] = assay: (b) LPS-induced TNFα/IL-8 release in PBMC cells; type: cell-based; details: Homo sapiens, read-out: IC50 for Inhibition of Cytokine Release, IL-8
Description: Peripheral blood mononuclear cells (PBMCs) from healthy subjects are separated from whole blood using a density gradient (Lymphoprep, Axis-Shield Healthcare). The PBMCs are seeded in 96 well plates and treated with compounds at the desired concentration for 2 hours before addition of 1 ng/ml LPS (Escherichia Coli 0111:B4 from Sigma Aldrich) for 24 hours under normal tissue culture conditions (37° C., 5% CO2). The supernatant is harvested for determination of IL-8 and TNFα concentrations by sandwich ELISA (Duo-set, R&D systems) and read on the fluorescence microplate reader (Varioskan® Flash, ThermoFisher Scientific).

PBMCs [2] = assay: (c) IL-2 and IFN gamma release in CD3/CD28 stimulated PBMC cells; type: cell-based; details: Homo sapiens
Description: PBMCs from healthy subjects are separated from whole blood using a density gradient (Lymphoprep, Axis-Shield Healthcare). Cells are added to a 96 well plate pre-coated with a mixture of CD3/CD28 monoclonal antibodies (0.3 ug/ml eBioscience and 3 ug/ml BD Pharmingen respectively). Compound at the desired concentration is then added to the wells and the plate left for 3 days under normal tissue culture conditions. […] The IC50 is determined from the dose response curve.

HT29 cells = assay: (d) IL-1β-induced IL-8 release in HT29 cells; type: cell-based; details: Homo sapiens, HT-29, read-out: IC50 for Inhibition of Cytokine Release, IL-8
Description: HT29 cells, a human colon adenocarcinoma cell line, are plated in a 96 well plate (24 hrs) and pre-treated with compounds at the desired concentration for 2 hours before addition of 5 ng/ml of IL-1β (Abeam) for 24 hours. Supernatants are harvested for IL-8 quantification by Sandwich ELISA (Duo-set, R&D System). The IC50 is determined from the dose response curve.

PBMCs [3] = assay: (i) Cell mitosis assay in PBMCs; type: cell-based; details: Homo sapiens, PBMC, 5 μg/mL
Description: PBMCs from healthy subjects are separated from whole blood (Quintiles, London, UK) using a density gradient (Histopaque®-1077, Sigma-Aldrich, Poole, UK). The PBMCs (3 million cells per sample) are subsequently treated with 2% PHA (Sigma-Aldrich, Poole, UK) for 48 hr, followed by a 20 hr exposure to varying concentrations of test compounds. At 2 hr before collection, PBMCs are treated with demecolcine (0.1 μg/mL; Invitrogen, Paisley, UK) to arrest cells in metaphase. […] Fluorescence is observed using an ATTUNE flow cytometer (Invitrogen, Paisley, UK), gating for lymphocytes.

β-catenin = assay: (m) Accumulation of β catenin in d-U937 cells; type: cell-based, human; details: Reference Compound at 1 μg/mL defined as 100%
Description: U937 cells, a human monocytic cell line, are differentiated into macrophage-type cells by incubation with PMA; (100 ng/mL) for between 48 to 72 hr. The cells are then incubated with either final concentrations of test compound or vehicle for 18 hr. The induction of β-catenin by the test compounds is stopped by replacing the media with 4% formaldehyde solution. Endogenous peroxide activity is neutralised by incubating with quenching buffer (100 μL, 0.1% sodium azide, 1% H2O2 in PBS with 0.05% Tween-20) for 20 min. The cells are washed with washing buffer (200 μL; PBS containing 0.05% Tween-20) and incubated with blocking solution (200 μL; 5% milk in PBS) for 1 hr, re-washed with washing buffer (200 μL) and then incubated overnight with anti-β-catenin antibody solution (50 μL) in 1% BSA/PBS (BD, Oxford, UK).
After washing with washing buffer (3×200 μL; PBS containing 0.05% Tween-20), cells are incubated with an HRP-conjugated secondary antibody solution (100 μL) in 1% BSA/PBS (Dako, Cambridge, UK) and the resultant signal is determined colourimetrically (OD: 450 nm with a reference wavelength of 655 nm) using TMB substrate (50 μL; R&D Systems, Abingdon, UK). This reaction is stopped by addition of 1N H2SO4 solution (50 μL). Cells are then washed with washing buffer and 2% crystal violet solution (50 μL) is applied for 30 min. After washing with washing buffer (3×200 μL), 1% SDS (100 μL) is added to each well and the plates are shaken lightly for 1 hr prior to measuring the absorbance at 595 nm (Varioskan® Flash, Thermo-Fisher Scientific).
The measured OD450-655 readings are corrected for cell number by dividing the OD450-655 by the OD595 readings.

p38 MAPKα = p38 MAPKα (Homo sapiens (Human), UniProt Q16539); assay: p38 MAPKα enzyme inhibition (FRET, Method 2); type: biochemical
Description: as §1
The inhibitory activities of test compounds against the p38 MAPKα isoform (MAPK14: Invitrogen), are evaluated indirectly by determining the level of activation/phosphorylation of the down-stream molecule, MAPKAP-K2. The p38 MAPKα protein (80 ng/mL, 2.5 μL) is mixed with the test compound (2.5 μL of either 4 μg/mL, 0.4 μg/mL, 0.04 μg/mL or 0.004 μg/mL) for 2 hr at RT. […] The mixture is incubated for 1 hr at RT. Development reagent (protease, 5 μL) is added for 1 hr prior to detection in a fluorescence microplate reader (Varioskan® Flash, ThermoFisher Scientific).
as §3

GSK3α = GSK3α (Homo sapiens (Human), UniProt P49840); assay: GSK 3α enzyme inhibition (FRET, Method 2); type: biochemical
Description: as §1
The inhibitory activities of compounds of the invention against the GSK 3α enzyme isoform (Invitrogen), are evaluated by determining the level of activation/phosphorylation of the target peptide. The GSK3-α protein (500 ng/mL, 2.5 μL) is mixed with the test compound (2.5 μL at either 4 μg/mL, 0.4 μg/mL, 0.04 μg/mL, or 0.004 μg/mL) for 2 hr at RT. The FRET peptide (8 μM, 2.5 μL), which is a phosphorylation target for GSK3α, and ATP (40 μM, 2.5 μL) are then added to the enzyme/compound mixture and the resulting mixture incubated for 1 hr. Development reagent (protease, 5 μL) is added for 1 hr prior to detection in a fluorescence microplate reader (Varioskan® Flash, ThermoFisher Scientific).
as §3

[4] = read-out: IC50 for Inhibition of Cytokine Release, IFNγ
[5] = read-out: IC50 for Inhibition of Cytokine Release, IL-2

c-Src, sequence (P12931 whole entry, looked up): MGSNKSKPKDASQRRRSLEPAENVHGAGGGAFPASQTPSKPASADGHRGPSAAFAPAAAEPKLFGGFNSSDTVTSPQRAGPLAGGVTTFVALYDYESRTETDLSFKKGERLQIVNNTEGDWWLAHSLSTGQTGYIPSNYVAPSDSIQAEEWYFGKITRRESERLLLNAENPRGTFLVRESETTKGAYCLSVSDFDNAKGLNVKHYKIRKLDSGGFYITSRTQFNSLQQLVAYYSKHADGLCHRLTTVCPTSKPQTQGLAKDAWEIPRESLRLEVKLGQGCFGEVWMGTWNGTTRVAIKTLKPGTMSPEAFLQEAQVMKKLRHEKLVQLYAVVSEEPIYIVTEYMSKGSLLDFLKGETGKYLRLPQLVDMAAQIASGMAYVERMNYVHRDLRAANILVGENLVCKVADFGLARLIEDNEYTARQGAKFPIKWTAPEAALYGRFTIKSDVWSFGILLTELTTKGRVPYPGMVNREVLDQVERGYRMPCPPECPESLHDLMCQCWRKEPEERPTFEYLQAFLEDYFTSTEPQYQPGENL
GSK3α, sequence (P49840 whole entry): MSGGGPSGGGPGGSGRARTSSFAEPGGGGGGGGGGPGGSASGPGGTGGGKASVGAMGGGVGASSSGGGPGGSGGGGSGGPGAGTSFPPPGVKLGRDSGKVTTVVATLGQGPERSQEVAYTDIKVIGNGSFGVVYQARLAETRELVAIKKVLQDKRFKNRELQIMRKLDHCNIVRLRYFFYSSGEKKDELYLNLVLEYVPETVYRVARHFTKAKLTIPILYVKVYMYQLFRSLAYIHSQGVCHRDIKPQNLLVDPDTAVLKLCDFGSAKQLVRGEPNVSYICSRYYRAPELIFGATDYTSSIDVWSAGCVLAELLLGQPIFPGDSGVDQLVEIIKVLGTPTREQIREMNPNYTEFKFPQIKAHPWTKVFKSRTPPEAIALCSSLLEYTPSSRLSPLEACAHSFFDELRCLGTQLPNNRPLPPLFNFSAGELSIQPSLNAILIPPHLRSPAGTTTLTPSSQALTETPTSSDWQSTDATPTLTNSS
p38 MAPKα, sequence (Q16539 whole entry): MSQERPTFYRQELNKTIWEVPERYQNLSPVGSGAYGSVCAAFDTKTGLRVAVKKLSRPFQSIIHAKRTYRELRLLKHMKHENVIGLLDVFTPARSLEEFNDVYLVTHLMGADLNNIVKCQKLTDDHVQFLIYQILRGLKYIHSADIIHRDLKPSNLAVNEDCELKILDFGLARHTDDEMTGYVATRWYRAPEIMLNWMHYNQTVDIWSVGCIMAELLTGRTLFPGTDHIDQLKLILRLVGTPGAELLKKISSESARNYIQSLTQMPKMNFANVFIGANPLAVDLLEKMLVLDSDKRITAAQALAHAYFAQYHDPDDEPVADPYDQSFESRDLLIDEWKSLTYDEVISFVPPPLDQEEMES

| Structure (SMILES) | IC50 (c-Src) [µM] | IC50 (Syk) [µM] | IC50 (HT29 cells) [µM] | IC50 (p38 MAPKα) [µM] | IC50 (GSK3α) [µM] | IC50 (PBMCs [1]) [µM] | IC50 (PBMCs [2]; [4]) [µM] | IC50 (PBMCs [2]; [5]) [µM] | inhibition at 5 µg/mL (PBMCs [3]) [%] | % β-catenin induction (β-catenin; 1 μg/mL) [%] | % β-catenin induction (β-catenin; 5 μg/mL) [%] | % β-catenin induction (β-catenin; 10 μg/mL) [%] |
| --- | --- | --- | --- | --- | --- | --- | --- | --- | --- | --- | --- | --- |
| [2H]c1c([2H])c(C([2H])([2H])[2H])c([2H])c([2H])c1-n1nc(C(C)(C)C)cc1NC(=O)Nc1ccc(Oc2ccnc(Nc3cc(C#C)cc(C(=O)NCCOCCOCCOC)c3)n2)c2ccccc12 [Example 6, 3-((4-((4-(3-(3-(tert-Butyl)-1-(2,3,5,6-tetradeutero-4-(trideuteromethyl)-phenyl)-1H-pyrazol-5-yl)ureido)naphthalen-1-yl)oxy)pyrimidin-2-yl)amino)-5-ethynyl-N-(2-(2-(2-methoxyethoxy)ethoxy)ethyl)benzamide] | 0.017 | 0.096 | 0.0024 | – | – | 0.0023 | 0.0029 | 0.123 | 10.2 | 3 | 3 | −1 |
| C#Cc1cc(Nc2nccc(Oc3ccc(NC(=O)Nc4cc(C(C)(C)C)nn4-c4ccc(N(C)C)cc4)c4ccccc34)n2)cc(C(=O)NCCOCCOCCOC)c1 [Example 9, 3-((4-((4-(3-(3-(tert-Butyl)-1-(4-(dimethylamino)phenyl)-1H-pyrazol-5-yl)ureido)-naphthalen-1-yl)oxy)pyrimidin-2-yl)amino)-5-ethynyl-N-(2-(2-(2-methoxyethoxy)-ethoxy)ethyl)benzamide] | 0.015 | 0.035 | 0.0035 | 0.098 | 12.1 | 0.0029 | 0.0084 | – | – | 1 | 2 | 4 |
| COCCOCCOCCNC(=O)c1cc(Nc2cc(Oc3ccc(NC(=O)Nc4cc(C(C)(C)C)nn4-c4ccc(N(C)C)cc4)c4ccccc34)ccn2)cc(OC)c1 [Example 10, 3-((4-((4-(3-(3-(tert-Butyl)-1-(4-(dimethylamino)phenyl)-1H-pyrazol-5-yl)ureido)-naphthalen-1-yl)oxy)pyridin-2-yl)amino)-5-methoxy-N-(2-(2-(2-methoxyethoxy)-ethoxy)ethyl)benzamide] | 0.025 | 0.048 | 0.0048 | 0.11 | 12 | 0.0033 | 0.0027 | – | – | 4 | 2 | 2 |
| C#Cc1cc(Nc2nccc(Oc3ccc(NC(=O)Nc4cc(C(C)C)nn4-c4ccc(C)cc4)c4ccccc34)n2)cc(C(=O)NCCOCCOCCOC)c1 [Example 1, 3-Ethynyl-5-((4-((4-(3-(3-isopropyl-1-(p-tolyl)-1H-pyrazol-5-yl)ureido)-naphthalen-1-yl)oxy)pyrimidin-2-yl)amino)-N-(2-(2-(2-methoxyethoxy)ethoxy)ethyl)-benzamide] | 0.03 | 0.37 | – | 0.025 | 12.8 | 0.0016 | – | – | 3.6 | −14 | −13 | −17 |

The next molecules have a lower IC50 (c-Src) than those just listed; values first:

| IC50 (c-Src) [µM] | IC50 (Syk) [µM] | IC50 (HT29 cells) [µM] | IC50 (p38 MAPKα) [µM] | IC50 (GSK3α) [µM] | Structure (SMILES) | IC50 (PBMCs [1]) [µM] | IC50 (PBMCs [2]; [4]) [µM] | IC50 (PBMCs [2]; [5]) [µM] | inhibition at 5 µg/mL (PBMCs [3]) [%] | % β-catenin induction (β-catenin; 1 μg/mL) [%] | % β-catenin induction (β-catenin; 5 μg/mL) [%] | % β-catenin induction (β-catenin; 10 μg/mL) [%] |
| --- | --- | --- | --- | --- | --- | --- | --- | --- | --- | --- | --- | --- |
| 0.013 | 0.034 | – | 0.033 | 13 | C#Cc1cc(Nc2nccc(Oc3ccc(NC(=O)Nc4cc(C(C)(C)C)nn4-c4ccc(OC)cc4)c4ccccc34)n2)cc(C(=O)NCCOCCOC)c1 [Example 5, 3-((4-((4-(3-(3-(tert-Butyl)-1-(4-methoxyphenyl)-1H-pyrazol-5-yl)ureido)-naphthalen-1-yl)oxy)pyrimidin-2-yl)amino)-5-ethynyl-N-(2-(2-methoxyethoxy)ethyl)-benzamide] | 0.0012 | 0.0017 | 0.0521 | 10.4 | 8 | 2 | 3 |
| 0.014 | 0.03 | – | 0.039 | 12.2 | C#Cc1cc(Nc2nccc(Oc3ccc(NC(=O)Nc4cc(C(C)(C)C)nn4-c4ccc(OC)cc4)c4ccccc34)n2)cc(C(=O)NCCOCCOCCOC)c1 [Example 3, 3-((4-((4-(3-(3-(tert-Butyl)-1-(4-methoxyphenyl)-1H-pyrazol-5-yl)ureido)-naphthalen-1-yl)oxy)pyrimidin-2-yl)amino)-5-ethynyl-N-(2-(2-(2-methoxyethoxy)-ethoxy)ethyl)benzamide] | 0.0012 | 0.002 | 0.0075 | 2.1 | 1 | 6 | 6 |
